Legend:
HT-1080 = experiment: Anti-proliferative activity against human tumor cell line HT1080; assay type: functional, cell-based
MDA-MB-435 = experiment: Anti-proliferative activity against human tumor cell line MDA-435; assay type: functional, cell-based
[1] = target: T1, Histone deacetylase (HDAC1 and HDAC2) (Homo sapiens, UniProt Q13547+Q92769); experiment: Inhibition of human histone deacetylase (mixture of HDAC1 and HDAC2) prepared from K562 erythroleukemia cells; assay type: cell-based; details: concentration not given here
[2] = target: T1, Histone deacetylase (HDAC1 and HDAC2); experiment: Inhibition of human histone deacetylase (mixture of HDAC1 and HDAC2) prepared from K562 erythroleukemia cells.; assay type: cell-based

T1 sequence (Q13547 whole entry, looked up): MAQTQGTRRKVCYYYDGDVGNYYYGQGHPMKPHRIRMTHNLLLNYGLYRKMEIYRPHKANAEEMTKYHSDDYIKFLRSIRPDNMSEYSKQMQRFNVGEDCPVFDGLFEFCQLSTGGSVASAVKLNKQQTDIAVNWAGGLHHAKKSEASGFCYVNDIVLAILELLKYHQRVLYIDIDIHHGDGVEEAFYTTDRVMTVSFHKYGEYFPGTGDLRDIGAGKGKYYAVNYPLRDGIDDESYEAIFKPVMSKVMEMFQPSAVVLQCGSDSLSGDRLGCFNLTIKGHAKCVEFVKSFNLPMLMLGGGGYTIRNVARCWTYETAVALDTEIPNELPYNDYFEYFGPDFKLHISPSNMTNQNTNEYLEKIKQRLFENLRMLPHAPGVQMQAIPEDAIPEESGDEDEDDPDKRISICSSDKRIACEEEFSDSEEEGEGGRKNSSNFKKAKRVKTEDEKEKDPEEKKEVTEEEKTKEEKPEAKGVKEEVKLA
T1 sequence (Q92769 whole entry, looked up): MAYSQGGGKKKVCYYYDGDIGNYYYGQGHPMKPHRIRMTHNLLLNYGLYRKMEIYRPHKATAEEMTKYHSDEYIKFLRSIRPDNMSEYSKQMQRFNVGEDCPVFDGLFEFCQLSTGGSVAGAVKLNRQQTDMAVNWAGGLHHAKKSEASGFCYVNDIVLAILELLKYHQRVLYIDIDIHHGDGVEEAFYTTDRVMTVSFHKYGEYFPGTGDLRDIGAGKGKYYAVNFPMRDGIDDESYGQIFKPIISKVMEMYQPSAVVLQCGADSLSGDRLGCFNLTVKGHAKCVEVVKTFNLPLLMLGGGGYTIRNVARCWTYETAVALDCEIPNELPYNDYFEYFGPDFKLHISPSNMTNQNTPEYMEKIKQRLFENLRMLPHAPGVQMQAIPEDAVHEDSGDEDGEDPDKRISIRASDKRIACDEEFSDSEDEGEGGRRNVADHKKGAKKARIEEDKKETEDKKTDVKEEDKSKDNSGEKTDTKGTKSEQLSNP

O=C(CCCCCCC(=O)C(F)(F)F)Nc1ccccc1
IC50 (HT-1080): 2.2 µM
IC50 (MDA-MB-435): 15 µM

O=C(CCCCCCCOc1ccc(-c2ccccc2)cc1)C(F)(F)F
inhibition [1]: 72%

O=C(CCCCCCC(=O)C(F)(F)F)Nc1cccc(-c2ccccc2)c1
IC50 (HT-1080): 16 µM
IC50 [2]: 0.38 µM
IC50 (MDA-MB-435): 23 µM

From ChEMBL document CHEMBL1134990, “Trifluoromethyl ketones as inhibitors of histone deacetylase” (Bioorg Med Chem Lett, 2002)
